From patent US20190076461A1, “MATERIALS AND METHODS FOR TREATING HYPOXIC CONDITIONS” (MitoGenetics, LLC, priority 2016, published 2019)

What was measured:
Assay type in all cases: cell-based
Details in all cases: 24 hour incubation, vs vehicle treated cells
[1] = tested on: COX19 (COX19 cytochrome c oxidase assembly homolog); test: DNA microarray of embryonic chicken liver cells incubated with selenomethionine: COX19 expression
Experimental: (§1) Embryonic chicken kidney and liver cells were obtained from Charles River Laboratories, Inc. Cells were cultured in 75 cc flasks. Each flask represented a treatment group as follows: Control, 1 nM selenomethionine. Treatments consisted of 24 hour incubations with selenomethionine. After that period, samples were processed for microarray analysis. Experiments were performed in triplicate. DNA microarray analyses were performed using a system provided by Agilent. Arrays included four arrays per chip (Agilent 4×44K chip). Total RNA was reverse transcribed (1000 ng) using T7 primers and labeled and transcribed using Cyanine-3 dye. Each array was hybridized with at least 1.65 μg of labeled cRNA at 65° C. for 18 hours. Arrays were scanned using an Agilent array scanner. The microarray platform can determine a minimum of a 1.5 fold change in gene expression. Fold changes between homozygous ZDF rats fed potosaccharide for 28 days vs homozygous ZDF rats fed an equivalent amount of vehicle (control) were examined. In addition, gene expression was measured in heterozygous ZDF (lean rats) fed with vehicle only and compared to gene expression in homozygous ZDF control rats. Fold changes were used to calculate a percent restoration by using the fold changes between homozygous ZDF rats fed potosaccharide and lean control rats.

[2] = tested on: COX10 (COX10 homolog, cytochrome c oxidase assembly protein, heme A: farnesyltransferase); test: DNA microarray of embryonic chicken liver cells incubated with selenomethionine: COX10 expression
Experimental: as §1

[3] = tested on: COX8A (cytochrome c oxidase subunit VIIIA); test: DNA microarray of embryonic chicken liver cells incubated with selenomethionine: COX8A expression
Experimental: as §1

[4] = tested on: COX7A2 (cytochrome c oxidase subunit VIIa polypeptide 2); test: DNA microarray of embryonic chicken liver cells incubated with selenomethionine: COX7A2 expression
Experimental: as §1

[5] = tested on: MOCS2 (molybdenum cofactor synthesis 2); test: DNA microarray of embryonic chicken liver cells incubated with selenomethionine: MOCS2 expression
Experimental: as §1

[6] = tested on: ATOX1 (ATX1 antioxidant protein 1 homolog); test: DNA microarray of embryonic chicken liver cells incubated with selenomethionine: ATOX1 expression
Experimental: as §1

C[Se]CC[C@H](N)C(=O)O [selenomethione, L-selenomethionine]
Fold Change (1 nM Se vs Control), COX19 [1]: 1.3 fold
Fold Change (1 nM Se vs Control), COX10 [2]: 1.4 fold
Fold Change (1 nM Se vs Control), COX8A [3]: 1.5 fold
Fold Change (1 nM Se vs Control), COX7A2 [4]: 2.2 fold
Fold Change (1 nM Se vs Control), MOCS2 [5]: 2.2 fold
Fold Change (1 nM Se vs Control), ATOX1 [6]: 1.4 fold
